Data from patent US20240301472A1, “NUCLEIC ACID DETECTION METHOD, COMPOUND AND FLUORESCENT PROBE” (WAKAYAMA UNIVERSITY, priority 2020, published 2024).

How the values were obtained:
[1] = system: viable cells (HeLA, A549, HEK293, MRC-5); experiment: Tracking of quadruplex nucleic acid formation in viable cells stained by compound 10 (response to PDS); type: cell-based; settings: PDS 20 μM added to viable cells stained by compound 10 (1 μM)
Description: In the seventh experiment, pyridostatin (PDS: 20 μM) was added to viable cells stained by the same method as that in the sixth experiment and temporal change of a fluorescence image thereafter was observed. Pyridostatin (PDS) is a reagent for stabilizing quadruplex nucleic acids. FIG. 24 and FIG. 25 show the result of the seventh experiment.
In FIG. 25 as well, a case where PDS was added to the viable cells stained by the compound 10 was indicated with PDS (+), and a case where PDS was not added was indicated with PDS (−). In FIG. 25, the vertical axis represents intensity ratio between 600 nm fluorescence and 700 nm fluorescence, and the horizontal axis represents time after addition of PDS.

ds(AAATTT) being a dsDNA = settings: conventional fluorescent ds probe, comparison value, read-out: dissociation constant; cited from earlier work
fixed HeLa cells = experiment: Competition experiment with Hoechist 33258 using fixed HeLa cells; type: cell-based; settings: Hoechist 33258 0-6.0 μM with compound 10 (6 μM) in PBS
Description: In a ninth experiment, a competition experiment with Hoechist 33258 was performed using fixed HeLa cells. As the staining liquid, one obtained by causing Hoechist 33258 at an arbitrary concentration (0 μM, 1.5 μM, 3.0 μM, 6.0 μM) to coexist in a PBS solution of the compound 10 (6 μM) was used, and the experiment was performed according to an operation similar to that in the fourth experiment. […] In FIG. 27, “Ph” is a phase contrast observation image of cells at each concentration of Hoechist 33258. “Hoe” is a 460 nm fluorescence image at each concentration of Hoechist 33258. The fluorescence wavelength of Hoechist 33258 is 460 nm. “600 nm” is a 600 nm fluorescence image. “700 nm” is a 700 nm fluorescence image. “600 nm/700 nm” is a synthesized image of “600 nm” and “700 nm”. “Magnified 600 nm/700 nm” is a magnified image of “600 nm/700 nm”.

living HeLa cells = experiment: Competition experiment with Hoechist 33258 using living HeLa cells; type: cell-based; settings: Hoechist 33258 0-20 μM with compound 10 (1 μM) in 5% glucose
Description: In a tenth experiment, a competition experiment with Hoechist 33258 was performed using living HeLa cells. As the staining liquid, one obtained by causing Hoechist 33258 at an arbitrary concentration (0 μM, 5.0 μM, 10 μM, 20 μM) to coexist in a 5% glucose solution of the compound 10 (1 μM) was used, and the experiment was performed according to an operation similar to that in the sixth experiment. […] In FIG. 28, “600 nm” is a 600 nm fluorescence image. “700 nm” is a 700 nm fluorescence image. “Hoe” is a 460 nm fluorescence image at each concentration of Hoechist 33258. “Merged” is a synthesized image of “600 nm”, “700 nm”, and “Hoe”.

For NCCOc1cc(C(=O)Nc2cc(OCCN)c3ccccc3n2)nc(C(=O)Nc2cc(OCCN)c3ccccc3n2)c1 [PDS, Pyridostatin], the “intensity ratio of 700 nm fluorescence to 600 nm fluorescence” value [1] was “increased”.
For C[n+]1c(/C=C/c2ccc(O)c(/C=C/c3sc4ccccc4[n+]3C)c2)sc2ccccc21 [QCy-DT, quinone cyanine-dithiazole], the Kd (ds(AAATTT) being a dsDNA) is listed as ~670 nM.
In the case of CN1CCN(c2ccc3[nH]c(-c4ccc5[nH]c(-c6ccc(O)cc6)nc5c4)nc3c2)CC1 [Hoechist 33258], the “600 nm fluorescence intensity of compound 10 with increasing Hoechist 33258 concentration” value (fixed HeLa cells) is reported as “significantly decreased” and the “600 nm fluorescence intensity of compound 10 with increasing Hoechist 33258 concentration” value (living HeLa cells) is reported as “significantly decreased”.
